The target in this assay is RAC-alpha serine/threonine-protein kinase (Homo sapiens, UniProt P31749). As to the kind of experiment: Inhibition of Akt.

The IC50 is the concentration at which inhibition is half-maximal. Higher therefore signals weaker potency in that assay.

Sequence of RAC-alpha serine/threonine-protein kinase (P31749 whole entry): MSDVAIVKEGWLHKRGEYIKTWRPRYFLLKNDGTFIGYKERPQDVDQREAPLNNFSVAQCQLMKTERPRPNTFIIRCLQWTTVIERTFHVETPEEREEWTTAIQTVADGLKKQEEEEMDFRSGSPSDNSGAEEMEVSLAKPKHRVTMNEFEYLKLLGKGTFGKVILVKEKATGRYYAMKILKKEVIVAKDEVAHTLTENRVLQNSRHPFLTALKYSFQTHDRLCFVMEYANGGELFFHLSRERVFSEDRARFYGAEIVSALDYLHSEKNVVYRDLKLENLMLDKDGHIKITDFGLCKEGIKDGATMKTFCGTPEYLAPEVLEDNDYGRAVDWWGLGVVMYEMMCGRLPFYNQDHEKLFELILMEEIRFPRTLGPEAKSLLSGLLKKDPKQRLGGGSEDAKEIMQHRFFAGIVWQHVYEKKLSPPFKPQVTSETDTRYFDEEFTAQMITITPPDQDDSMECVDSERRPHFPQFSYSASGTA

For `Cn1cc(C(CN)Oc2cncc(/C=C/c3ccncc3)c2)c2ccccc21` (stereo unspecified), inhibition was half-maximal at 760 nM (IC50).

Compound `N[C@H](COc1cncc(-c2ccc3ccccc3c2)c1)Cc1c[nH]c2ccccc12` gave an IC50 of 1120 nM.

Consider `N[C@H](COc1cncc(-c2ccc(CO)cc2)c1)Cc1c[nH]c2ccccc12`, for which the IC50 came to 4020 nM.

`N[C@H](COc1cncc(-c2ccc3[nH]nc(C=O)c3c2)c1)Cc1c[nH]c2ccccc12` yielded an IC50 of 1850 nM.

In the case of `O=C1C(Sc2cccc(Cl)c2Cl)=C(Cl)C(=O)c2[nH]ncc21`, the IC50 amounted to 12300 nM.

`Cc1n[nH]c2cnc(-c3cncc(OC[C@@H](N)Cc4cccc(OCCN)c4)c3)cc12` gave an IC50 of 47 nM.

The compound `Nc1n[nH]c2ccc(-c3cncc(OC[C@@H](N)Cc4c[nH]c5ccccc45)c3)cc12` registered an IC50 of 2.9 nM.

Compound `CC(C)=C1C(=O)Nc2ccc(-c3cncc(OC[C@@H](N)Cc4c[nH]c5ccccc45)c3)cc21` displayed an IC50 of 80 nM.

`N[C@H](COc1cncc(-c2ccc3c(c2)C(C2CC2)C(=O)N3)c1)Cc1c[nH]c2ccccc12` (stereo partly specified) yielded a half-inhibitory concentration (IC50) of 3.3 nM.

The compound `N[C@H](COc1cncc(CCc2ccncc2)c1)Cc1c[nH]c2ccccc12` registered an IC50 of 210 nM.

Turning to `O=c1[nH]c2ccccc2n1C1CCN(Cc2ccc(-c3nc4cc(-n5cnnn5)ccc4nc3-c3ccccc3)cc2)CC1`, the 50% inhibitory concentration (IC50) is 20 nM.

`Cc1cc(C2C(=O)Nc3ccc(-c4cncc(OC[C@@H](N)Cc5c[nH]c6ccccc56)c4)cc32)oc1C` (stereo partly specified) came in with a concentration for half-maximal inhibition (IC50) of 10 nM.

Compound `Cc1cc(F)ccc1C[C@H](N)COc1cncc(-c2cc3c(C)n[nH]c3cn2)c1` returned a 50% inhibitory concentration (IC50) of 6 nM.

In turn, `CCc1ncc(OC[C@@H](N)Cc2c[nH]c3ccccc23)cc1-c1ccc2cnccc2c1` yielded an IC50 of 0.8 nM.

Turning to `N[C@H](COc1cncc(NC(=O)c2ccncc2)c1)Cc1c[nH]c2ccccc12`, the IC50 is 2020 nM.

For `Cc1cc(C[C@H](N)COc2cncc(-c3cc4c(C)n[nH]c4cn3)c2)ccc1F`, the half-inhibitory concentration (IC50) was 2.5 nM.

As to `Cc1n[nH]c2cnc(-c3cncc(OC[C@@H](N)Cc4cccc(OCC5CCCCC5)c4)c3)cc12`, the IC50 turned out to be 1360 nM.

As to `N[C@H](COc1cncc(-c2ccc3[nH]nc(-c4ccccc4)c3c2)c1)Cc1c[nH]c2ccccc12`, it took 3.9 nM to reach half-maximal inhibition (IC50).

`N[C@H](COc1cncc(C(=O)Nc2ccncc2)c1)Cc1c[nH]c2ccccc12` displayed an IC50 of 1660 nM.

In turn, `N[C@H](COc1cncc(-c2ccc3nnccc3c2)c1)Cc1c[nH]c2ccccc12` had a half-maximal inhibitory concentration (IC50) of 215 nM.

On to `O=c1[nH]c2ccccc2n1C1CCN(Cc2ccc(-c3nc4ccc(-n5cnnn5)cc4nc3-c3ccccc3)cc2)CC1`, for which half-maximal inhibition (IC50) was put at 63 nM.

In turn, `C(=C\c1cncc(OCC2CCN2)c1)/c1ccncc1` (stereo unspecified) returned a half-inhibitory concentration (IC50) of 10900 nM.

As for `Cc1n[nH]c2cnc(-c3cncc(OC[C@@H](N)Cc4c(F)cccc4F)c3)cc12`, the 50% inhibitory concentration (IC50) is 65.5 nM.

With `N[C@H](CNc1cnc(Cl)c(/C=C/c2ccncc2)c1)Cc1c[nH]c2ccccc12`, inhibition was half-maximal at 79 nM (IC50).

In the case of `CCC1C(=O)Nc2ccc(-c3cncc(OC[C@@H](N)Cc4c[nH]c5ccccc45)c3)cc21` (stereo partly specified), the half-inhibitory concentration (IC50) amounted to 52.7 nM.

On to `Cn1cccc1C1C(=O)Nc2ccc(-c3cncc(OC[C@@H](N)Cc4c[nH]c5ccccc45)c3)cc21` (stereo partly specified), for which the IC50 came out at 8.2 nM.

The compound `N[C@H](COc1cncc(-c2cccc3cnccc23)c1)Cc1c[nH]c2ccccc12` showed an IC50 of 331 nM.

In turn, `N[C@H](COc1cncc(-c2ccc3[nH]nc(-c4ccc[nH]4)c3c2)c1)Cc1c[nH]c2ccccc12` displayed a concentration for half-maximal inhibition (IC50) of 1.2 nM.

`N[C@H](COc1cncc(-c2ccc3[nH]nc(N4CCOCC4)c3c2)c1)Cc1c[nH]c2ccccc12` came in with an IC50 of 18 nM.

`Nc1nccc2cc(-c3cncc(OC[C@@H](N)Cc4c[nH]c5ccccc45)c3)ccc12` came in with an IC50 of 188 nM.

In turn, `N[C@H](COc1cncc(-c2ccc3[nH]nc(-c4cccs4)c3c2)c1)Cc1c[nH]c2ccccc12` came in with a concentration for half-maximal inhibition (IC50) of 1.3 nM.

As to `N[C@H](COc1cncc(-c2cc3ccncc3s2)c1)Cc1c[nH]c2ccccc12`, the 50% inhibitory concentration (IC50) turned out to be 179 nM.

Turning to `Cc1n[nH]c2cnc(-c3cncc(OC[C@@H](N)Cc4ccc(F)c(F)c4F)c3)cc12`, half-maximal inhibition (IC50) required 12 nM.

For `Cc1n[nH]c2cnc(-c3cncc(OC[C@@H](N)Cc4cccc(OCCN5CCOCC5)c4)c3)cc12`, the IC50 turned out to be 751 nM.

As for `N[C@H](COc1cncc(-c2ccc3c(c2)C(=O)C(=O)N3)c1)Cc1c[nH]c2ccccc12`, the IC50 came out at 5.4 nM.

In turn, `Cc1n[nH]c2cnc(-c3cncc(OC[C@@H](N)Cc4cccc(F)c4)c3)cc12` returned an IC50 of 8.4 nM.

As for `N[C@H](COc1cncc(-c2ccc3c(c2)C(c2cccs2)C(=O)N3)c1)Cc1c[nH]c2ccccc12` (stereo partly specified), the IC50 was 0.9 nM.

`N[C@H](COc1cncc(-c2ccc3c(c2)C(c2ccco2)C(=O)N3)c1)Cc1c[nH]c2ccccc12` (stereo partly specified): half-maximal inhibition (IC50) required 0.17 nM.

As to `O=C1C(Nc2cc(F)ccc2F)=C(Cl)C(=O)c2[nH]ncc21`, the 50% inhibitory concentration (IC50) came to 16000 nM.

`N[C@H](COc1cncc(-c2ccc3c(c2)C(F)(F)C(=O)N3)c1)Cc1c[nH]c2ccccc12` registered an IC50 of 1.5 nM.

In the case of `Cc1n[nH]c2cnc(-c3cncc(OC[C@@H](N)Cc4cccc(OCC5CCNCC5)c4)c3)cc12`, half-maximal inhibition (IC50) required 6.8 nM.

Take `CCc1c(C)[nH]c(C2C(=O)Nc3ccc(-c4cncc(OC[C@@H](N)Cc5c[nH]c6ccccc56)c4)cc32)c1C` (stereo partly specified): half-maximal inhibition (IC50) required 40.3 nM.

The compound `N[C@H](COc1cncc(-c2ccc3[nH]nc(-c4nccs4)c3c2)c1)Cc1c[nH]c2ccccc12` gave a 50% inhibitory concentration (IC50) of 9.8 nM.

`N[C@H](COc1cncc(-c2ccc3c(c2)C(c2ccc[nH]2)C(=O)N3)c1)Cc1c[nH]c2ccccc12` (stereo partly specified) yielded an IC50 of 1.5 nM.

`N[C@H](COc1cncc(-c2ccc3c(=O)[nH]ccc3c2)c1)Cc1c[nH]c2ccccc12` registered an IC50 of 1020 nM.

On to `N[C@H](COc1cncc(-c2ccc3c(c2)C(c2ncc[nH]2)C(=O)N3)c1)Cc1c[nH]c2ccccc12` (stereo partly specified), for which the concentration for half-maximal inhibition (IC50) turned out to be 7.2 nM.

Consider `N[C@H](COc1cncc(-c2ccc(NC(=O)Nc3ccccc3)cn2)c1)Cc1c[nH]c2ccccc12`, for which 1120 nM corresponded to half-maximal inhibition (IC50).

In turn, `N[C@H](COc1cncc(-c2ccc3c(c2)C(Cc2ccco2)C(=O)N3)c1)Cc1ccccc1` (stereo partly specified) came in with a half-maximal inhibitory concentration (IC50) of 1.4 nM.

For `N[C@H](COc1cncc(-c2ccncc2)c1)Cc1c[nH]c2ccccc12`, the IC50 amounted to 245 nM.

On to `Cc1ccc(C2C(=O)Nc3ccc(-c4cncc(OC[C@@H](N)Cc5c[nH]c6ccccc56)c4)cc32)o1` (stereo partly specified), for which the half-inhibitory concentration (IC50) amounted to 0.7 nM.

As to `N[C@H](COc1cncc(-c2cnc3c(c2)CC(=O)N3)c1)Cc1c[nH]c2ccccc12`, half-maximal inhibition (IC50) required 7.4 nM.

`N[C@H](COc1cncc(-c2ccc3c(c2)C(c2ccccc2)C(=O)N3)c1)Cc1c[nH]c2ccccc12` (stereo partly specified) gave an IC50 of 5.9 nM.

`N[C@H](COc1cncc(-c2ccc3c(c2)C(c2c[nH]c4ccccc24)C(=O)N3)c1)Cc1c[nH]c2ccccc12` (stereo partly specified) had an IC50 of 153 nM.

Take `Cc1n[nH]c2cnc(-c3cncc(OC[C@@H](N)Cc4cccc5c4OC(F)(F)O5)c3)cc12`: the midpoint of inhibition, the IC50, lay at 14 nM.

For the compound `Cc1ccc(F)cc1C[C@H](N)COc1cncc(-c2cc3c(C)n[nH]c3cn2)c1`, the IC50 amounted to 3.9 nM.

For the compound `N[C@H](COc1cncc(/C=C/c2ccncc2)c1)C(c1ccccc1)c1ccccc1`, 273 nM corresponded to half-maximal inhibition (IC50).

`CN(C)c1n[nH]c2ccc(-c3cncc(OC[C@@H](N)Cc4c[nH]c5ccccc45)c3)cc12`: the half-inhibitory concentration (IC50) was determined as 18 nM.

In the case of `N[C@H](COc1cncc(-c2ccc3c(c2)C(c2ccccn2)C(=O)N3)c1)Cc1c[nH]c2ccccc12` (stereo partly specified), the 50% inhibitory concentration (IC50) came to 10.3 nM.

On to `N[C@H](COc1cncc(-c2ccc3[nH]nc(C4CC4)c3c2)c1)Cc1c[nH]c2ccccc12`, for which inhibition was half-maximal at 2.6 nM (IC50).

In the case of `N[C@H](COc1cncc(-c2ccc3[nH]c(=O)sc3c2)c1)Cc1c[nH]c2ccccc12`, the IC50 came out at 99 nM.

`N[C@H](COc1cncc(-c2ccc3c(c2)/C(=C/c2ccc[nH]2)C(=O)N3)c1)Cc1ccccc1`: 0.6 nM corresponded to half-maximal inhibition (IC50).

The compound `Cc1n[nH]c2cnc(-c3cncc(OC[C@@H](N)Cc4ccccc4)c3)cc12` showed an IC50 of 14 nM.

Turning to `CC1C(=O)Nc2ccc(-c3cncc(OC[C@@H](N)Cc4c[nH]c5ccccc45)c3)cc21` (stereo partly specified), the half-maximal inhibitory concentration (IC50) is 4 nM.

Compound `Cc1n[nH]c2cnc(-c3cncc(OC[C@@H](N)Cc4ccc(C(F)(F)F)cc4)c3)cc12` displayed an IC50 of 18 nM.

The compound `N[C@H](COc1cncc(-c2ccc3c(c2)C(c2cccnc2)C(=O)N3)c1)Cc1c[nH]c2ccccc12` (stereo partly specified) returned an IC50 of 10.4 nM.

In the case of `N[C@H](COc1cncc(-c2ccc3ncccc3c2)c1)Cc1c[nH]c2ccccc12`, the IC50 was determined as 312 nM.

`N[C@H](COc1cncc(-c2ccc3c(c2)CC(=O)N3)c1)Cc1ccccc1`: the IC50 turned out to be 16 nM.

`CCc1n[nH]c2ccc(-c3cncc(OC[C@@H](N)Cc4c[nH]c5ccccc45)c3)cc12`: inhibition was half-maximal at 1.15 nM (IC50).

`Cc1n[nH]c2cnc(-c3cncc(OC[C@@H](N)Cc4ccc(Br)cc4)c3)cc12` gave an IC50 of 5 nM.

In turn, `CC(C)c1nc(-c2ccccc2)c(-c2ccc(CN3CCC(n4c(=O)[nH]c5ccccc54)CC3)cc2)[nH]c1=O` showed an IC50 of 21200 nM.

With `Cc1cc(C)c(C[C@H](N)COc2cncc(-c3cc4c(C)n[nH]c4cn3)c2)c(C)c1`, the half-inhibitory concentration (IC50) came out at 39 nM.

The values above are taken from ChEMBL document CHEMBL1154070, “QSAR study of Akt/protein kinase B (PKB) inhibitors using support vector machine” (Eur J Med Chem, 2009).
